# Results published in patent US20200383961A1, “TRIPLET THERAPIES OF HDAC INHIBITORS, PD-L1 AND/OR PD-1 INHIBITORS, AND CTLA-4 INHIBITORS” (HUYA Bioscience International, LLC, priority 2019, published 2020).
# Like-named read-outs stand apart in the source and are kept apart here.
# B1: Mogamulizumab: RR/ATL treatment, historical benchmark (antibody, chains of the INN, looked up, V domains shown)
# VH: EVQLVESGGDLVQPGRSLRLSCAASGFIFSNYGMSWVRQAPGKGLEWVATISSASTYSYYPDSVKGRFTISRDNAKNSLYLQMNSLRVEDTALYYCGRHSDGNFAFGYWGQGTLVTVSS
# VL: DVLMTQSPLSLPVTPGEPASISCRSSRNIVHINGDTYLEWYLQKPGQSPQLLIYKVSNRFSGVPDRFSGSGSGTDFTLKISRVEAEDVGVYYCFQGSLLPWTFGQGTKVEIK
# Legend:
# [1] = Tolerability of compounds of formula I, nivolumab and their combination (adverse events); assay type: in vivo, human; conditions: for TRAE Anemia G1-2 / TRAE Anemia G3 / TRAE Anemia G4 / TRAE Diarrhea G1-2 / TRAE Diarrhea G3 / TRAE Diarrhea G4 / TRAE Fatigue G1-2 / TRAE Fatigue G3 / TRAE Fatigue G4 / TRAE Hypophospatemia G1-2 / TRAE Hypophospatemia G3 / TRAE Hypophospatemia G4 / TRAE Lymphocyte decrease G1-2 / TRAE Lymphocyte decrease G3 / TRAE Lymphocyte decrease G4 / TRAE Neutrophil decrease G1-2 / TRAE Neutrophil decrease G3 / TRAE Neutrophil decrease G4 / TRAE Platelet decrease G1-2 / TRAE Platelet decrease G3 / TRAE Platelet decrease G4 / TRAE WBC decrease G1-2 / TRAE WBC decrease G3 / TRAE WBC decrease G4: TRAE >= 5% frequency, by association
# Method: The tolerability of the compounds of formula I, nivolumab, and a combination of the compounds of formula I and nivolumab were tested. The Phase 2 clinical dosage of 30 mg BIW of the compounds of formula I was administered.
# RR/PTCL = conditions: historical benchmark, cited from earlier work
# RR/ATL [2] = conditions: cited from earlier work; for ORR: historical benchmark, RR/ATL
# RR/ATL [3] = experiment: Historical benchmarks for RR/ATL treatments; assay type: in vivo, human; conditions: Phase I, listed among benchmarks
# Method: (§1) The compounds of formula I were used as a monotherapy for relapsed or refractory aggressive adult T-cell lymphoma (“RR/ATL”). A dosage of 40 mg biw was approved for this study. A summary of the results is found in Table 12. […] The time after prior treatment was 88 days (vs. 234 days for lenalidomide P2 trial). All patients had received mogamulizumab (“moga”) (lenalidomide ORR in moga patients was 18%).
# [4] = test system: tumor micro-environment (TME); conditions: cited from earlier work
# [5] = test system: relapsed or refractory aggressive adult T-cell lymphoma (RR/ATL); experiment: Phase 2 monotherapy in relapsed or refractory aggressive adult T-cell lymphoma; assay type: in vivo, human; conditions: 20 evaluable, 40 mg biw monotherapy
# Method: as §1
# [6] = test system: relapsed or refractory peripheral T-cell lymphoma (RR/PTCL); experiment: Phase 2 monotherapy in relapsed or refractory peripheral T-cell lymphoma; assay type: in vivo, human
# Method: The compounds of formula I were used as a monotherapy for relapsed or refractory peripheral T-cell lymphoma (“RR/PTCL”). A dosage of 40 mg biw was approved for this study. A summary of the results is found in Table 10. […] The time after prior treatment was 96 days (vs. 222 days for romidepsin P2 trial). […] The median PFS (months) was 7.6.
# [7] = less frequent TRAEs associated with NIVO alone
# [8] = 43 evaluable, 40 mg biw monotherapy
# [9] = number of patients, 43 evaluable, 40 mg biw monotherapy
molecule,measurement,setting,value
NIVO: fully human monoclonal antibody directed against PD-1,TRAE Anemia G1-2,[1],0 n (% of N)
same,TRAE Anemia G3,[1],0 n (% of N)
same,TRAE Anemia G4,[1],0 n (% of N)
same,TRAE Diarrhea G1-2,[1],4 (6) n (% of N)
same,TRAE Diarrhea G3,[1],1 (2) n (% of N)
same,TRAE Diarrhea G4,[1],0 n (% of N)
same,TRAE Fatigue G1-2,[1],0 n (% of N)
same,TRAE Fatigue G3,[1],0 n (% of N)
same,TRAE Fatigue G4,[1],0 n (% of N)
same,TRAE Hypophospatemia G1-2,[1],0 n (% of N)
same,TRAE Hypophospatemia G3,[1],0 n (% of N)
same,TRAE Hypophospatemia G4,[1],0 n (% of N)
same,TRAE Lymphocyte decrease G1-2,[1],0 n (% of N)
same,TRAE Lymphocyte decrease G3,[1],0 n (% of N)
same,TRAE Lymphocyte decrease G4,[1],0 n (% of N)
same,TRAE Neutrophil decrease G1-2,[1],0 n (% of N)
same,TRAE Neutrophil decrease G3,[1],0 n (% of N)
same,TRAE Neutrophil decrease G4,[1],0 n (% of N)
same,TRAE Platelet decrease G1-2,[1],0 n (% of N)
same,TRAE Platelet decrease G3,[1],0 n (% of N)
same,TRAE Platelet decrease G4,[1],0 n (% of N)
same,TRAE WBC decrease G1-2,[1],0 n (% of N)
same,TRAE WBC decrease G3,[1],0 n (% of N)
same,TRAE WBC decrease G4,[1],0 n (% of N)
same,TRAE TSH increase,[1]; [7],5 n
same,TRAE amylase increase,[1]; [7],4 n
same,TRAE lipase increase,[1]; [7],6 n
same,TRAE rash,[1]; [7],10 n
C#CCC(Cc1cnc2nc(N)nc(N)c2n1)c1ccc(C(=O)N[C@@H](CCC(=O)O)C(=O)O)cc1 (some centres unmarked) [Pralatrexate],ORR,RR/PTCL,45%
Nc1cccc2c1CN(C1CCC(=O)NC1=O)C2=O (centres unmarked) [Lenalidomide],ORR,RR/ATL [2],42%
same,ORR in moga patients,"RR/ATL [2]; patients who had received mogamulizumab, lenalidomide P2 trial",18%
"Nc1cc(F)ccc1NC(=O)c1ccc(CNC(=O)/C=C/c2cccnc2)cc1 [HBI-8000, N-(2-amino-4-fluorophenyl)-4-[[[(2E)-1-oxo-3-(3-pyridinyl)-2-propen-1-yl]amino]methyl]benzamide]",ORR,RR/ATL [3],75%
same,TRAE Anemia G1-2,[1],14 (22) n (% of N)
same,TRAE Anemia G3,[1],1 (2) n (% of N)
same,TRAE Anemia G4,[1],0 n (% of N)
same,TRAE Diarrhea G1-2,[1],0 n (% of N)
same,TRAE Diarrhea G3,[1],0 n (% of N)
same,TRAE Diarrhea G4,[1],0 n (% of N)
same,TRAE Fatigue G1-2,[1],0 n (% of N)
same,TRAE Fatigue G3,[1],0 n (% of N)
same,TRAE Fatigue G4,[1],0 n (% of N)
same,TRAE Hypophospatemia G1-2,[1],6 (10) n (% of N)
same,TRAE Hypophospatemia G3,[1],4 (6) n (% of N)
same,TRAE Hypophospatemia G4,[1],0 n (% of N)
same,TRAE Lymphocyte decrease G1-2,[1],0 n (% of N)
same,TRAE Lymphocyte decrease G3,[1],0 n (% of N)
same,TRAE Lymphocyte decrease G4,[1],0 n (% of N)
same,TRAE Neutrophil decrease G1-2,[1],8 (13) n (% of N)
same,TRAE Neutrophil decrease G3,[1],5 (8) n (% of N)
same,TRAE Neutrophil decrease G4,[1],1 (2) n (% of N)
same,TRAE Platelet decrease G1-2,[1],23 (37) n (% of N)
same,TRAE Platelet decrease G3,[1],3 (5) n (% of N)
same,TRAE Platelet decrease G4,[1],0 n (% of N)
same,TRAE WBC decrease G1-2,[1],11 (17) n (% of N)
same,TRAE WBC decrease G3,[1],1 (2) n (% of N)
same,TRAE WBC decrease G4,[1],0 n (% of N)
same,share of TRAEs associated with the agent,"[1]; among TRAEs, 63 subjects",39%
same,PD-1 and PD-L1 expression,"[4]; ""cold"" tumors",increases
same,apoptosis scores and signatures,[4]; tumor cells,increasing
same,conversion of M2 (suppressive) to M1 (antitumor) macrophages,[4]; tumor micro-environment,promotes
same,influx of CD8+ T cells and NK cells,[4]; tumor micro-environment,increases
same,"number and activity of regulatory T cells (TREGs), myeloid-derived suppressor cells (MDSCs)",[4]; tumor micro-environment,reduces
same,"ratio of active CD8+ effector T cells to ""exhausted"" CD8 T cells",[4]; tumor micro-environment,increases
same,DCR,[5],60%
same,ORR,[5],40%
same,Stable Disease,[5]; number of patients,4
same,Partial Responses,"[5]; number of patients, all had received mogamulizumab",8
same,DCR,[6]; [8],74%
same,ORR,[6]; [8],46%
same,median PFS,"[6]; estimated, PD date by investigator judgement, FIG. 7A",7.6 months
same,Complete Responses,[6]; [9],4
same,Partial Responses,[6]; [9],16
same,Stable Disease,[6]; [9],12
O=c1[nH]cnc2c([C@@H]3N[C@H](CO)[C@@H](O)[C@H]3O)c[nH]c12 [Forodesine],ORR,RR/PTCL,22%
Nc1cc(F)ccc1NC(=O)c1ccc(CNC(=O)/C=C/c2cccnc2)cc1 [Epidaza],ORR (PMS),"RR/PTCL; value in brackets, PMS",35%
same,ORR,RR/PTCL,28%
B1,ORR,RR/ATL [2],50%
